Patent US12486269B2 (Aconcagua Bio, Inc., priority 2024, dated 2025)

Key:
[1] = target: T1, human calcitonin receptor (CTR) (Homo sapiens, UniProt P30988); assay: Calcitonin Receptor (CTR) cAMP Assay; type: cell-based; conditions: COS7-human CTR Clone #2 stable cell line, cAMP dynamic 2 kit, 30 min; read-out: Calcitonin Receptor cAMP Stimulation Activity: EC50
T1 construct: expressed in transfected cells; host or cells: COS-7 (COS7-human CTR Clone #2)
T1 sequence (P30988 25-474): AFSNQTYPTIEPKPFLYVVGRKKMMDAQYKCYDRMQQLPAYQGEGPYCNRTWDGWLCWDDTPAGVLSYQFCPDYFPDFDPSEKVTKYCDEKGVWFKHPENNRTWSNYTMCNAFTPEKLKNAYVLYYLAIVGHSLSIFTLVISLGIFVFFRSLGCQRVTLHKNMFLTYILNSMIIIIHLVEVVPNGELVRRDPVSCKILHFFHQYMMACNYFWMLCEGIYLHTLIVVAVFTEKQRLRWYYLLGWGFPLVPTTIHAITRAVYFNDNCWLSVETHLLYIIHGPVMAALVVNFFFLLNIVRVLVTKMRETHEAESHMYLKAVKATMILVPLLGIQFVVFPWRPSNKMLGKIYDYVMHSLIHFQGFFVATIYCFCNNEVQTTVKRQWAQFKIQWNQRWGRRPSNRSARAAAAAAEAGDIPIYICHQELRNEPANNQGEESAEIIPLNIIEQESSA
Outline: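 COS-7 cells stably expressing human CTR (2000 cells/well) were incubated 30 min at 37 °C with 4-fold serially diluted compound in HBSS/20 mM HEPES/0.5 mM IBMX/0.1% casein. cAMP was detected by HTRF (665/615 nm) after 1 h at RT. % activity was normalised to vehicle and positive controls.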

[2] = target: T2, COS-7/AMY3 (human calcitonin receptor (CTR) and RAMP3) (Homo sapiens, UniProt O60896+P30988); assay: Amylin Receptor cAMP Assay II; type: cell-based; conditions: values marked **: Amylin Receptor cAMP Assay II; COS-7/AMY3 cells, cAMP dynamic 2 kit, 30 min; read-out: Amylin Receptor cAMP Stimulation Activity: EC50
T2 construct: expressed in transfected cells; host or cells: COS-7
Outline: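 COS-7 cells stably co-expressing human CTR and RAMP3 (AMY3), 2000 cells/well in HBSS with 20 mM HEPES, 0.5 mM IBMX, 0.1% casein, stimulated with compound for 30 min at 37 °C. cAMP measured by HTRF (665/615 nm), activity normalized between vehicle and maximal control.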

T2 sequence (O60896 24-148, one chain of several): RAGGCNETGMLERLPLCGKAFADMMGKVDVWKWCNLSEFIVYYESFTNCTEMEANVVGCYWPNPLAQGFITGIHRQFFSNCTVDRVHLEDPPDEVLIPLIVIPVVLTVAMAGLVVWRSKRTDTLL

| Compound | EC50 [1] [µM] | EC50 [2] [µM] |
| --- | --- | --- |
| COc1cccc2c1CC[C@H]2Nc1nc(C(F)(F)F)cc2cc(-c3c4c(nc(CCc5ccc(F)cc5)c3-c3n[nH]c(=O)o3)[C@@H]3CCCN3C4=O)sc12 [Compound 215, 5-((S)-2-(4-fluorophenethyl)-4-(7-(((R)-4-methoxy-2,3-dihydro-1H-inden-1-yl)amino)-5-(trifluoromethyl)thieno[2,3-c]pyridin-2-yl)-5-oxo-7,8,9,9a-tetrahydro-5H-pyrido[2,3-a]pyrrolizin-3-yl)-1,3,4-oxadiazol-2(3H)-one] | 0.000406 | 0.00723 |
| COc1cccc2c1CC[C@H]2Nc1cc(C(F)(F)F)cn2cc(-c3c4c(nc(CCc5ccc(F)cc5)c3-c3n[nH]c(=O)o3)[C@@H]3CCCN3C4=O)nc12 [Compound 216, 5-((S)-2-(4-fluorophenethyl)-4-(8-(((R)-4-methoxy-2,3-dihydro-1H-inden-1-yl)amino)-6-(trifluoromethyl)imidazo[1,2-a]pyridin-2-yl)-5-oxo-7,8,9,9a-tetrahydro-5H-pyrido[2,3-a]pyrrolizin-3-yl)-1,3,4-oxadiazol-2(3H)-one] | 0.152 | 1.34 |
| COc1cccc2c1CC[C@H]2Nc1nccc2cc(-c3c4c(nc(C[C@H]5COc6cc(F)ccc65)c3-c3n[nH]c(=O)o3)[C@@H]3CCCN3C4=O)sc12 [Compound 217, 5-((S)-2-(((R)-6-fluoro-2,3-dihydrobenzofuran-3-yl)methyl)-4-(7-(((R)-4-methoxy-2,3-dihydro-1H-inden-1-yl)amino)thieno[2,3-c]pyridin-2-yl)-5-oxo-7,8,9,9a-tetrahydro-5H-pyrido[2,3-a]pyrrolizin-3-yl)-1,3,4-oxadiazol-2(3H)-one] | 0.000706 | 0.0478 |
| COc1cccc2c1CC[C@H]2Nc1nccc2cc(-c3c4c(nc(C[C@@H]5COc6cc(F)ccc65)c3-c3n[nH]c(=O)o3)[C@@H]3CCCN3C4=O)sc12 [Compound 218, 5-((S)-2-(((S)-6-fluoro-2,3-dihydrobenzofuran-3-yl)methyl)-4-(7-(((R)-4-methoxy-2,3-dihydro-1H-inden-1-yl)amino)thieno[2,3-c]pyridin-2-yl)-5-oxo-7,8,9,9a-tetrahydro-5H-pyrido[2,3-a]pyrrolizin-3-yl)-1,3,4-oxadiazol-2(3H)-one] | 0.0115 | 0.0893 |
| O=C1c2c(nc(CCc3ccc(F)cc3)c(-c3n[nH]c(=O)o3)c2-c2ccc3c(Cc4ccc(F)cc4F)nccc3c2)[C@@H]2CCCN12 [Compound 219, (S)-5-(4-(1-(2,4-difluorobenzyl)isoquinolin-6-yl)-2-(4-fluorophenethyl)-5-oxo-7,8,9,9a-tetrahydro-5H-pyrido[2,3-a]pyrrolizin-3-yl)-1,3,4-oxadiazol-2(3H)-one] | 0.0274 | 0.437 |
| O=C1c2c(nc(CCc3ccc(F)cc3)c(-c3n[nH]c(=O)o3)c2-c2ccc3c(c2)CCCN3Cc2ccc(F)cc2F)[C@@H]2CCCN12 [Compound 220, (S)-5-(4-(1-(2,4-difluorobenzyl)-1,2,3,4-tetrahydroquinolin-6-yl)-2-(4-fluorophenethyl)-5-oxo-7,8,9,9a-tetrahydro-5H-pyrido[2,3-a]pyrrolizin-3-yl)-1,3,4-oxadiazol-2(3H)-one] | 0.0205 | 11.4 |
| O=C1c2c(nc(CCc3ccc(F)cc3)c(-c3n[nH]c(=O)o3)c2-c2ccc3c(Cc4ccc(F)cc4F)noc3c2)[C@@H]2CCCN12 [Compound 221, (S)-5-(4-(3-(2,4-difluorobenzyl)benzo[d]isoxazol-6-yl)-2-(4-fluorophenethyl)-5-oxo-7,8,9,9a-tetrahydro-5H-pyrido[2,3-a]pyrrolizin-3-yl)-1,3,4-oxadiazol-2(3H)-one] | 0.0155 | 0.865 |
| O=C1c2c(nc(CCc3ccc(F)cc3)c(-c3n[nH]c(=O)o3)c2-c2ccc3c(Cc4ccc(F)cn4)noc3c2)[C@@H]2CCCN12 [Compound 222, (S)-5-(2-(4-fluorophenethyl)-4-(3-((5-fluoropyridin-2-yl)methyl)benzo[d]isoxazol-6-yl)-5-oxo-7,8,9,9a-tetrahydro-5H-pyrido[2,3-a]pyrrolizin-3-yl)-1,3,4-oxadiazol-2(3H)-one] | 0.0128 | 0.511 |
| N#Cc1ccc(Cn2ccc3cc(-c4c5c(nc(CCc6ccc(F)cc6)c4-c4n[nH]c(=O)o4)[C@@H]4CCCN4C5=O)cnc32)nc1 [Compound 223, (S)-6-((5-(2-(4-fluorophenethyl)-5-oxo-3-(5-oxo-4,5-dihydro-1,3,4-oxadiazol-2-yl)-7,8,9,9a-tetrahydro-5H-pyrido[2,3-a]pyrrolizin-4-yl)-1H-pyrrolo[2,3-b]pyridin-1-yl)methyl)nicotinonitrile] | 0.0276 | 0.758 |
| COc1cccc2c1CC[C@H]2Nc1nccc2cc(-c3c4c(nc(C[C@H]5CCc6cc(F)ccc65)c3-c3n[nH]c(=O)o3)[C@@H]3CCCN3C4=O)sc12 [Compound 224, 5-((S)-2-(((R)-5-fluoro-2,3-dihydro-1H-inden-1-yl)methyl)-4-(7-(((R)-4-methoxy-2,3-dihydro-1H-inden-1-yl)amino)thieno[2,3-c]pyridin-2-yl)-5-oxo-7,8,9,9a-tetrahydro-5H-pyrido[2,3-a]pyrrolizin-3-yl)-1,3,4-oxadiazol-2(3H)-one] | 0.000702 | 0.0507 |
| COc1cccc2c1CC[C@H]2Nc1nccc2cc(-c3c4c(nc(CCc5ccc(F)cc5)c3-c3n[nH]c(=O)s3)[C@@H]3CCCN3C4=O)sc12 [Compound 225, 5-((S)-2-(4-fluorophenethyl)-4-(7-(((R)-4-methoxy-2,3-dihydro-1H-inden-1-yl)amino)thieno[2,3-c]pyridin-2-yl)-5-oxo-7,8,9,9a-tetrahydro-5H-pyrido[2,3-a]pyrrolizin-3-yl)-1,3,4-thiadiazol-2(3H)-one] | 0.000836 | 0.0146 |
| O=C1c2c(nc(CCc3ccc(F)cc3)c(-c3n[nH]c(=O)o3)c2-c2cc3ccnc(N[C@@H]4CCc5ccccc54)c3s2)[C@@H]2CCCN12 [Compound 226, 5-((S)-4-(7-(((R)-2,3-dihydro-1H-inden-1-yl)amino)thieno[2,3-c]pyridin-2-yl)-2-(4-fluorophenethyl)-5-oxo-7,8,9,9a-tetrahydro-5H-pyrido[2,3-a]pyrrolizin-3-yl)-1,3,4-oxadiazol-2(3H)-one] | 0.00108 | 0.0142 |
| C[C@@H](Nc1nccc2cc(-c3c4c(nc(CCc5ccc(F)cc5)c3-c3n[nH]c(=O)o3)[C@@H]3CCCN3C4=O)sc12)c1ccc(F)c(F)c1 [Compound 227, 5-((S)-4-(7-(((R)-1-(3,4-difluorophenyl)ethyl)amino)thieno[2,3-c]pyridin-2-yl)-2-(4-fluorophenethyl)-5-oxo-7,8,9,9a-tetrahydro-5H-pyrido[2,3-a]pyrrolizin-3-yl)-1,3,4-oxadiazol-2(3H)-one] | 0.00167 | 0.0333 |
| C[C@@H](Nc1nccc2cc(-c3c4c(nc(CCc5ccc(F)cc5)c3-c3n[nH]c(=O)o3)[C@@H]3CCCN3C4=O)sc12)c1ccc(F)cc1F [Compound 228, 5-((S)-4-(7-(((R)-1-(2,4-difluorophenyl)ethyl)amino)thieno[2,3-c]pyridin-2-yl)-2-(4-fluorophenethyl)-5-oxo-7,8,9,9a-tetrahydro-5H-pyrido[2,3-a]pyrrolizin-3-yl)-1,3,4-oxadiazol-2(3H)-one] | 0.0257 | 3.03 |
| COc1cccc2c1CC[C@H]2Nc1nccc2cc(-c3c4c(nc(CCc5ccc(F)cc5)c3-c3n[nH]c(=O)o3)[C@H]3CCCN3C4=O)sc12 [Compound 229, 5-((R)-2-(4-fluorophenethyl)-4-(7-(((R)-4-methoxy-2,3-dihydro-1H-inden-1-yl)amino)thieno[2,3-c]pyridin-2-yl)-5-oxo-7,8,9,9a-tetrahydro-5H-pyrido[2,3-a]pyrrolizin-3-yl)-1,3,4-oxadiazol-2(3H)-one] | 0.0134 | 0.0484 |
| COc1cccc2c1CC[C@H]2Nc1nccc2cc(-c3c4c(nc(CCc5ccc(F)cc5)c3-c3n[nH]c(=O)o3)[C@@H]3CCCN3C4=O)sc12 [Compound 230, 5-((S)-2-(4-fluorophenethyl)-4-(7-(((R)-4-methoxy-2,3-dihydro-1H-inden-1-yl)amino)thieno[2,3-c]pyridin-2-yl)-5-oxo-7,8,9,9a-tetrahydro-5H-pyrido[2,3-a]pyrrolizin-3-yl)-1,3,4-oxadiazol-2(3H)-one] | 0.00051 | 0.0174 |
| N#Cc1ccc(Cn2ccc3cc(-c4c5c(nc(CCC67CCC(CC6)OC7)c4-c4n[nH]c(=O)o4)[C@@H]4CCCN4C5=O)cnc32)c(F)c1 [Compound 231, (S)-4-((5-(2-(2-(2-oxabicyclo[2.2.2]octan-4-yl)ethyl)-5-oxo-3-(5-oxo-4,5-dihydro-1,3,4-oxadiazol-2-yl)-7,8,9,9a-tetrahydro-5H-pyrido[2,3-a]pyrrolizin-4-yl)-1H-pyrrolo[2,3-b]pyridin-1-yl)methyl)-3-fluorobenzonitrile] | 0.171 | 15.3 |
